One data set concerns the target T1, IRAK4 (Homo sapiens, UniProt Q9NWZ3).
T1 construct: endogenous in cells; host or cells: OCI-LY10
T1 sequence (Q9NWZ3 1-460): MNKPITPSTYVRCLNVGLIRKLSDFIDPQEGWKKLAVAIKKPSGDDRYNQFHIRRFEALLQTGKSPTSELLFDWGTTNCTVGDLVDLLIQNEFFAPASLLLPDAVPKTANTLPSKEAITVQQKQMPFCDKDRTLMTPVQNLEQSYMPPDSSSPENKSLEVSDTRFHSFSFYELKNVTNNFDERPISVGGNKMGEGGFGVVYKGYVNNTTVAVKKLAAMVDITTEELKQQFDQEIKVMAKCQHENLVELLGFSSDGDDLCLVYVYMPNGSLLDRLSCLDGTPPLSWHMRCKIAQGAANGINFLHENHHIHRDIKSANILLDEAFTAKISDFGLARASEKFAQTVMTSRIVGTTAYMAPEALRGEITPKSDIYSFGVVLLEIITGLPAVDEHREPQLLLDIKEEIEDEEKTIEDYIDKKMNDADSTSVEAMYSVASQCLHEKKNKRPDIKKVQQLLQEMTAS
The data set is described as follows: IRAK4 MSD degradation in OCI-LY10. Particulars: OCI-LY10 cells, 24 hrs, Meso Scale Discovery. Format: cell-based. The method in brief: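 OCI-LY10 cells treated 4 to 24 hours at 37° C. with 8-dose 1:3 series, top 1 to 10 μM. IRAK4 in lysates quantified by MSD sandwich immunoassay (mouse capture, rabbit detection, SULFO-TAG anti-rabbit). DC50 from three-parameter logistic fit.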

The nature of data set [1]: Rodent pharmacokinetics (rat PK). Format: in vivo. Particulars: po, dosed intravenously or orally by gavage, plasma, read-out: F % (bioavailability). In outline: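 Rats were dosed IV or by oral gavage, with jugular blood taken predose and at 5 min (IV only), 15, 30 min and 1, 2, 4, 8, 24 h. Plasma was separated by centrifugation at 4 °C. Oral bioavailability (F %) is coded A (≥5%) or B (≤5%).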

The DC50 is the midpoint of the concentration-degradation curve. A high value points to degradation only at high concentration. The term bioavailability denotes the share of a dose that reaches the circulation, judged against a reference dose that is usually intravenous.

At IRAK4, `Cc1nn(C2CCC(=O)NC2=O)c2cccc([C@@H]3CCN(C[C@H]4CC[C@H](n5cc6cc(NC(=O)c7cncc(C(F)(F)F)n7)ccc6n5)CC4)CC3(F)F)c12` (single isomer, unassigned) [I-371] displayed a DC50 of 10 to 100 nM. For the same compound, the bioavailability in data set [1] was at least 5%.
`Cc1nn(C2CCC(=O)NC2=O)c2cccc([C@H]3CCN(C[C@H]4CC[C@H](n5cc6cc(NC(=O)c7cncc(C(F)(F)F)n7)ccc6n5)CC4)CC3(F)F)c12` (single isomer, unassigned) [I-372] came in with a DC50 at IRAK4 of 10 to 100 nM. In addition, in data set [1], the bioavailability was at least 5%.
For `Cn1c(=O)n(C2CCC(=O)NC2=O)c2ccc(F)c([C@H]3CCN(C[C@H]4CC[C@H](n5cc6cc(NC(=O)c7cncc(C#N)c7)c(C(C)(C)O)cc6n5)CC4)CC3(F)F)c21` (single isomer, unassigned) [I-383], in that order: below 10 nM and at most 5%.
For `Cn1c(=O)n(C2CCC(=O)NC2=O)c2cccc([C@@H]3CCN(C[C@H]4CC[C@H](n5cc6cc(NC(=O)c7cncc(C#N)c7)c(C(C)(C)O)cc6n5)CC4)CC3(F)F)c21` (single isomer, unassigned) [I-389], in that order: below 10 nM and at most 5%.
For `Cn1c(=O)n(C2CCC(=O)NC2=O)c2cccc([C@H]3CCN(C[C@H]4CC[C@H](n5cc6cc(NC(=O)c7cncc(C#N)c7)c(C(C)(C)O)cc6n5)CC4)CC3(F)F)c21` (single isomer, unassigned) [I-390], in that order: below 10 nM and at most 5%.
Take `COc1ccc2c(c1[C@@H]1CCN(C[C@H]3CC[C@H](n4cc5cc(NC(=O)c6cncc(C(F)(F)F)n6)ccc5n4)CC3)CC1(F)F)n(C)c(=O)n2C1CCC(=O)NC1=O` (single isomer, unassigned) [I-391]: the DC50 on IRAK4 is below 10 nM. Moreover, in data set [1], the bioavailability was at least 5%.
For `COc1ccc2c(c1[C@H]1CCN(C[C@H]3CC[C@H](n4cc5cc(NC(=O)c6cncc(C(F)(F)F)n6)ccc5n4)CC3)CC1(F)F)n(C)c(=O)n2C1CCC(=O)NC1=O` (single isomer, unassigned) [I-392], in that order: below 10 nM and at least 5%.
For `Cn1c(=O)n(C2CCC(=O)NC2=O)c2cccc([C@@H]3CCN(C[C@H]4CC[C@H](n5cc6cc(NC(=O)c7cccc(C(F)(F)F)n7)c(N7CCN(C8CC8)CC7)cc6n5)CC4)C[C@H]3F)c21` (stereo partly shown) [I-107], in that order: 10 to 100 nM and at most 5%.
For `Cn1c(=O)n(C2CCC(=O)NC2=O)c2cccc(C#CCOC[C@H]3CC[C@H](n4cc(NC(=O)c5cnn6ccc(N7C[C@H]8C[C@@H]7CO8)nc56)c(C(F)F)n4)CC3)c21` (stereo partly shown) [I-108], in that order: 10 to 100 nM and at least 5%.
At IRAK4, `Cn1c(=O)n(C2CCC(=O)NC2=O)c2cccc(CCCOC[C@H]3CC[C@H](n4cc(NC(=O)c5cnn6ccc(N7C[C@H]8C[C@@H]7CO8)nc56)c(C(F)F)n4)CC3)c21` (stereo partly shown) [I-109] returned a DC50 above 200 nM. Besides, in data set [1], the bioavailability is at most 5%.
For `COc1cc2nc([C@H]3CC[C@H](CN4CCC5(CN(c6cccc7c6n(C)c(=O)n7C6CCC(=O)NC6=O)C5)C(F)(F)C4)CC3)sc2cc1NC(=O)c1cncc(C#N)c1` (stereo partly shown) [I-110], in that order: 10 to 100 nM and at most 5%.
For `Cn1c(=O)n(C2CCC(=O)NC2=O)c2cccc(N3CC(COC[C@H]4CC[C@H](n5cc(NC(=O)c6cnn7ccc(N8C[C@H]9C[C@@H]8CO9)nc67)c(C(F)F)n5)CC4)C3)c21` (stereo partly shown) [I-111], in that order: above 200 nM and at most 5%.
Consider `Cn1c(=O)n(C2CCC(=O)NC2=O)c2ccc(F)c(N3CC(N4CCN([C@H]5CC[C@H](n6cc(NC(=O)c7cnn8ccc(N9C[C@H]%10C[C@@H]9CO%10)nc78)c(C(F)F)n6)CC5)CC4)C3)c21` (stereo partly shown) [I-117], for which the DC50 at IRAK4 is below 10 nM. Also, the bioavailability in data set [1] was at least 5%.
For `COc1cc2nn([C@H]3CC[C@H](CN4CCC5(CCN(c6cccc7c6n(C)c(=O)n7C6CCC(=O)NC6=O)CC5)C(F)(F)C4)CC3)cc2cc1NC(=O)c1cncc(F)c1` (stereo partly shown) [I-127], the DC50 on IRAK4 is below 10 nM. In addition, the bioavailability in data set [1] is at most 5%.
For `COc1cc2nn([C@H]3CC[C@H](CN4CCC5(CN(c6ccc(C7CCC(=O)NC7=O)c(Cl)c6)C5)C(F)(F)C4)CC3)cc2cc1NC(=O)c1cncc(C#N)c1` (stereo partly shown) [I-128], the DC50 at IRAK4 lay in the range of 10 to 100 nM. In addition, in data set [1], the bioavailability is at most 5%.
For `Cn1c(=O)n(C2CCC(=O)NC2=O)c2cccc([C@@H]3CCN(C[C@H]4CC[C@H](n5cc6cc(NC(=O)c7cncc(C#N)c7)ccc6n5)CC4)C[C@H]3F)c21` (stereo partly shown) [I-129], in that order: below 10 nM and at most 5%.
For `COc1cc2nn([C@H]3CC[C@H](CN4CCC5(CCN(c6cccc7c(C8CCC(=O)NC8=O)nn(C)c67)CC5)C(F)(F)C4)CC3)cc2cc1NC(=O)c1cncc(C#N)c1` (stereo partly shown) [I-132], in that order: below 10 nM and at most 5%.
For `COc1cc2nn([C@H]3CC[C@H](CN4CC[C@@H](c5c(Cl)ccc6c5n(C)c(=O)n6C5CCC(=O)NC5=O)[C@H](F)C4)CC3)cc2cc1NC(=O)c1cncc(C#N)c1` (stereo partly shown) [I-133], in that order: below 10 nM and at most 5%.
Compound `Cn1c(=O)n(C2CCC(=O)NC2=O)c2cccc([C@@H]3CCN(C[C@H]4CC[C@H](n5cc6cc(NC(=O)c7cc(C(F)(F)F)ccn7)ccc6n5)CC4)C[C@H]3F)c21` (stereo partly shown) [I-134] came in with a DC50 on IRAK4 above 200 nM. For the same compound, the bioavailability in data set [1] was at least 5%.
For `Cn1c(=O)n(C2CCC(=O)NC2=O)c2cccc(N3CC[C@H](NC[C@H]4CC[C@H](n5cc(NC(=O)c6cnn7ccc(N8C[C@H]9C[C@@H]8CO9)nc67)c(C(F)F)n5)CC4)[C@@H](F)C3)c21` (stereo partly shown) [I-135], in that order: below 10 nM and at least 5%.
For `CN(C[C@H]1CC[C@H](c2nc3cc(C(C)(C)O)c(NC(=O)c4cccc(C(F)(F)F)n4)cc3o2)CC1)[C@@H]1CCN(c2cccc3c2n(C)c(=O)n3C2CCC(=O)NC2=O)C[C@H]1F` (stereo partly shown) [I-137], in that order: below 10 nM and at least 5%.
Compound `Cn1c(=O)n(C2CCC(=O)NC2=O)c2cccc(N3CCC4(CCN(C[C@H]5CC[C@H](n6cc7cc(NC(=O)c8cccc(C(F)(F)F)c8)ncc7n6)CC5)CC4(F)F)CC3)c21` (stereo partly shown) [I-141] showed a DC50 on IRAK4 of 10 to 100 nM. In addition, in data set [1], the bioavailability is at most 5%.
`COc1cc2nn([C@H]3CC[C@H](CN4CC[C@@H](c5cccc6c5n(C)c(=O)n6C5CCC(=O)NC5=O)[C@H](F)C4)CC3)cc2cc1C(=O)Nc1cccc(C(F)(F)F)c1` (stereo partly shown) [I-142]: the DC50 on IRAK4 was below 10 nM. The bioavailability in data set [1] is at least 5%.
For `Cc1nc(C(=O)Nc2ccc3nn([C@H]4CC[C@H](CN5CC[C@@H](c6cccc7c6n(C)c(=O)n7C6CCC(=O)NC6=O)[C@H](F)C5)CC4)cc3c2)co1` (stereo partly shown) [I-148], in that order: below 10 nM and at most 5%.
For `Cn1c(=O)n(C2CCC(=O)NC2=O)c2cccc([C@@H]3CCN(C[C@H]4CC[C@H](n5cc6cc(NC(=O)c7csc(C(F)(F)F)n7)ccc6n5)CC4)C[C@H]3F)c21` (stereo partly shown) [I-149], in that order: below 10 nM and at most 5%.
At IRAK4, `Cn1c(=O)n(C2CCC(=O)NC2=O)c2cccc([C@@H]3CCN(C[C@H]4CC[C@H](n5cc6cc(NC(=O)c7nc(C(F)(F)F)cs7)ccc6n5)CC4)C[C@H]3F)c21` (stereo partly shown) [I-154] displayed a DC50 below 10 nM. Also, in data set [1], the bioavailability was at most 5%.
For `Cn1cc(Cl)c(C(=O)Nc2ccc3nn([C@H]4CC[C@H](CN5CC[C@@H](c6cccc7c6n(C)c(=O)n7C6CCC(=O)NC6=O)[C@H](F)C5)CC4)cc3c2)n1` (stereo partly shown) [I-155], in that order: above 200 nM and at most 5%.
For `Cn1c(=O)n(C2CCC(=O)NC2=O)c2cccc([C@@H]3CCN(C[C@H]4CC[C@H](n5cc6cc(NC(=O)c7cncc(C(F)(F)F)n7)ncc6n5)CC4)C[C@H]3F)c21` (stereo partly shown) [I-156], in that order: below 10 nM and at most 5%.
On to `Cn1c(=O)n(C2CCC(=O)NC2=O)c2cccc([C@@H]3CCN(C[C@H]4CC[C@H](c5nc6cc(C(C)(C)O)c(NC(=O)c7cncc(C(F)(F)F)c7)cc6s5)CC4)C[C@H]3F)c21` (stereo partly shown) [I-163], for which, at IRAK4, the DC50 was below 10 nM. The bioavailability in data set [1] is at least 5%.
For `Cn1c(=O)n(C2CCC(=O)NC2=O)c2cccc([C@@H]3CCN(C[C@H]4CC[C@H](c5nc6cc(C(C)(C)O)c(NC(=O)c7cccc(C(F)(F)F)n7)cc6o5)CC4)C[C@H]3F)c21` (stereo partly shown) [I-167], in that order: below 10 nM and at least 5%.
As to `Cn1c(=O)n(C2CCC(=O)NC2=O)c2cccc([C@@H]3CCN(C[C@H]4CC[C@H](c5nc6cc(C(C)(C)O)c(NC(=O)c7cccc(C(F)(F)F)c7)cc6s5)CC4)C[C@H]3F)c21` (stereo partly shown) [I-169], the DC50 on IRAK4 was below 10 nM. The bioavailability in data set [1] is at most 5%.
For `Cn1c(=O)n(C2CCC(=O)NC2=O)c2cccc([C@@H]3CCN(C[C@H]4CC[C@H](c5nc6cc(C(C)(C)O)c(NC(=O)c7ccnc(C(F)(F)F)n7)cc6s5)CC4)C[C@H]3F)c21` (stereo partly shown) [I-170], in that order: below 10 nM and at least 5%.

Values taken from patent US20250059164A1, “IRAK DEGRADERS AND USES THEREOF” (Kymera Therapeutics, Inc., priority 2023, published 2025).
